According to ChEMBL document CHEMBL4507291 (2021):

Columns and labels:
[1] = biological target: T1, Tyrosine-protein kinase ITK/TSK (Homo sapiens) (UniProt Q08881)
T1 sequence (whole entry): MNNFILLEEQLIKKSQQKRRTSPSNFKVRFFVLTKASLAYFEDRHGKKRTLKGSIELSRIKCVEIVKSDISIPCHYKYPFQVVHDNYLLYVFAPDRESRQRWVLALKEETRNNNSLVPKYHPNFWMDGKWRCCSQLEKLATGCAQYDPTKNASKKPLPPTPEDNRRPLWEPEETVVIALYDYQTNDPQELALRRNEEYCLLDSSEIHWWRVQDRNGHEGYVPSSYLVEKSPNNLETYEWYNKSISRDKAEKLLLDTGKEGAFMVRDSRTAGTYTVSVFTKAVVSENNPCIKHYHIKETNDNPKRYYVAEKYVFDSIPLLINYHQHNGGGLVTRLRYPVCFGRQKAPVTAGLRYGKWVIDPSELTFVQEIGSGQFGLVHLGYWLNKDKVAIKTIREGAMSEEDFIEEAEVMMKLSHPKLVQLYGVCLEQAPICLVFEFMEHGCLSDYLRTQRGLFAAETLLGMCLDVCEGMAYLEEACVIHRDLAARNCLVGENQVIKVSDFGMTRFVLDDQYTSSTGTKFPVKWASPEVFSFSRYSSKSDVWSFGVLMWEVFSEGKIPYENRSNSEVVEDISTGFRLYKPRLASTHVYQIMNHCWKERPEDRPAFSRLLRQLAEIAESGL

[2] = biological target: Serine/threonine-protein kinase 25 (Homo sapiens) (UniProt O00506)
[3] = biological target: Cyclin-dependent kinase 17 (Homo sapiens) (UniProt Q00537)
[4] = test system: Epidermal growth factor receptor (Homo sapiens), P00533 [G719S]
[5] = test system: Tyrosine-protein kinase ABL1 (Homo sapiens), P00519 [H396P]
[6] = biological target: Tyrosine-protein kinase Lck (Homo sapiens) (UniProt P06239)
[7] = biological target: 5-hydroxytryptamine receptor 2A (Homo sapiens) (UniProt P28223); conditions: Compound concentration 10.0 uM
[8] = test system: ALK tyrosine kinase receptor (Homo sapiens), Q9UM73 [L1196M]
[9] = biological target: RAC-gamma serine/threonine-protein kinase (Homo sapiens) (UniProt Q9Y243)
Chain of RAC-gamma serine/threonine-protein kinase (Homo sapiens) (Q9Y243 whole entry): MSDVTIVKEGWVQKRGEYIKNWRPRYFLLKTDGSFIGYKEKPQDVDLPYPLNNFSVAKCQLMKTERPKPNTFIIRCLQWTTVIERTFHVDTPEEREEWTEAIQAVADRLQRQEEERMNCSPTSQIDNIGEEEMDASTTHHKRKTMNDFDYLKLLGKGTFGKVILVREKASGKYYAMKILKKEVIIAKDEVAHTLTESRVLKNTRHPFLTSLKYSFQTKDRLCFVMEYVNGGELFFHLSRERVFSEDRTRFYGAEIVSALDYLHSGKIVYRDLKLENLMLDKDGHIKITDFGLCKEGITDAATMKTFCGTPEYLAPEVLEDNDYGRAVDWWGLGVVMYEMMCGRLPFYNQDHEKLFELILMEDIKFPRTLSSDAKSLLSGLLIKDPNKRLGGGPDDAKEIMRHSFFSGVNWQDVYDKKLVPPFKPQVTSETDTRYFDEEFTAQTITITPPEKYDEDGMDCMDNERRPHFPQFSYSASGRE

[10] = biological target: Aurora kinase B (Homo sapiens) (UniProt Q96GD4)
Chain of Aurora kinase B (Homo sapiens) (Q96GD4 whole entry): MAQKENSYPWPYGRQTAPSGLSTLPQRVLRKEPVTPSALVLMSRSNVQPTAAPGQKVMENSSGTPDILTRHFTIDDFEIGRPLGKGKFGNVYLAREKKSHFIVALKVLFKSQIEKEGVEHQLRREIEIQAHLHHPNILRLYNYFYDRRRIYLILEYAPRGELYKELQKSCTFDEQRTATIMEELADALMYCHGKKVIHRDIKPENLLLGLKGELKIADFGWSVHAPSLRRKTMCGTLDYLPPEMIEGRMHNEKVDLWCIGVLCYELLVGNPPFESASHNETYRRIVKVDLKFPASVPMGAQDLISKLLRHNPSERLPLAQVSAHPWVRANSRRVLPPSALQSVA

[11] = biological target: Mitogen-activated protein kinase kinase kinase 11 (Homo sapiens) (UniProt Q16584)
Chain of Mitogen-activated protein kinase kinase kinase 11 (Homo sapiens) (Q16584 whole entry, looked up, canonical isoform): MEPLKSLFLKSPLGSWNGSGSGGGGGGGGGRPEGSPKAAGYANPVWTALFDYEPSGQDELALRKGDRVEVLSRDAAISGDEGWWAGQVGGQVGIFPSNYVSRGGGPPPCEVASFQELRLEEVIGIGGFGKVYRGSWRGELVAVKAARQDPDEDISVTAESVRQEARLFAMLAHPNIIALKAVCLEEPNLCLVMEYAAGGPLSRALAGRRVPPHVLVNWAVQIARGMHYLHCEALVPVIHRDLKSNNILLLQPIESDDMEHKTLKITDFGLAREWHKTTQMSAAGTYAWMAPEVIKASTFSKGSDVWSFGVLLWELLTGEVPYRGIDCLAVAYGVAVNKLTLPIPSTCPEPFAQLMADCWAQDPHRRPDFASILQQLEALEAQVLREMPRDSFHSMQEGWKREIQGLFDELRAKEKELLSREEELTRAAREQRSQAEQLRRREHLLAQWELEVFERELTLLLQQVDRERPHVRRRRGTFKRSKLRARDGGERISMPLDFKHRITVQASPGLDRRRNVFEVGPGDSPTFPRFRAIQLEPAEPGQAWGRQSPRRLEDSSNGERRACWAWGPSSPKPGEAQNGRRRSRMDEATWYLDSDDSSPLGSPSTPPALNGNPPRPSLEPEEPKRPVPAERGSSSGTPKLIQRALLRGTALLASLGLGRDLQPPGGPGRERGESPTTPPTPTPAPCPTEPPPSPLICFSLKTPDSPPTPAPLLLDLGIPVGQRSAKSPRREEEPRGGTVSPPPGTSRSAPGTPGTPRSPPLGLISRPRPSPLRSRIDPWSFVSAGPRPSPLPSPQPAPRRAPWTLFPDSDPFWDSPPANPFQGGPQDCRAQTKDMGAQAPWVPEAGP

[12] = biological target: Casein kinase I isoform epsilon (Homo sapiens) (UniProt P49674)
[13] = biological target: Serine/threonine-protein kinase PAK 4 (Homo sapiens) (UniProt O96013)
[14] = biological target: Cyclin-dependent kinase 11A (Homo sapiens) (UniProt Q9UQ88)
Chain of Cyclin-dependent kinase 11A (Homo sapiens) (Q9UQ88 whole entry): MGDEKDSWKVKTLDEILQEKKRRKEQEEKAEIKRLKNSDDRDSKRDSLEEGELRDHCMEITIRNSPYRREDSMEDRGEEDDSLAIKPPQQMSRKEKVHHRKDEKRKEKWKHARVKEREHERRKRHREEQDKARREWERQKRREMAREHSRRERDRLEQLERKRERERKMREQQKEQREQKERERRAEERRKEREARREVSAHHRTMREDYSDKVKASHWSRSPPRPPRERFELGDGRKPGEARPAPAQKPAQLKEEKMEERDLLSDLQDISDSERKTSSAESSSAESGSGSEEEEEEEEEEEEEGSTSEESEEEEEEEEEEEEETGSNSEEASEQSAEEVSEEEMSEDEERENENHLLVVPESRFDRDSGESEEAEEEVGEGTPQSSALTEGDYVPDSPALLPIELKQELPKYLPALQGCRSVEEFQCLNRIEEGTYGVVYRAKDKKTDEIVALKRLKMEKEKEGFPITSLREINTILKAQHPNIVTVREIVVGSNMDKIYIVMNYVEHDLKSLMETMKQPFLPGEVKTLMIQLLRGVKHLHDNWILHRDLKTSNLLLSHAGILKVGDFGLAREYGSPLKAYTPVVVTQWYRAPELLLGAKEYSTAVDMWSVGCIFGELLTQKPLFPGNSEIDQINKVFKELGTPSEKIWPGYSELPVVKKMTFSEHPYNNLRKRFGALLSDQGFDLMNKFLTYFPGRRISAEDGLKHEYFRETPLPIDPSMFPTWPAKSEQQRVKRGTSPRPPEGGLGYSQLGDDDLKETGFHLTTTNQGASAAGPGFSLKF

[15] = biological target: Ribosomal protein S6 kinase alpha-3 (Homo sapiens) (UniProt P51812)
[16] = biological target: Cyclin-dependent kinase 19 (Homo sapiens) (UniProt Q9BWU1)
Chain of Cyclin-dependent kinase 19 (Homo sapiens) (Q9BWU1 whole entry): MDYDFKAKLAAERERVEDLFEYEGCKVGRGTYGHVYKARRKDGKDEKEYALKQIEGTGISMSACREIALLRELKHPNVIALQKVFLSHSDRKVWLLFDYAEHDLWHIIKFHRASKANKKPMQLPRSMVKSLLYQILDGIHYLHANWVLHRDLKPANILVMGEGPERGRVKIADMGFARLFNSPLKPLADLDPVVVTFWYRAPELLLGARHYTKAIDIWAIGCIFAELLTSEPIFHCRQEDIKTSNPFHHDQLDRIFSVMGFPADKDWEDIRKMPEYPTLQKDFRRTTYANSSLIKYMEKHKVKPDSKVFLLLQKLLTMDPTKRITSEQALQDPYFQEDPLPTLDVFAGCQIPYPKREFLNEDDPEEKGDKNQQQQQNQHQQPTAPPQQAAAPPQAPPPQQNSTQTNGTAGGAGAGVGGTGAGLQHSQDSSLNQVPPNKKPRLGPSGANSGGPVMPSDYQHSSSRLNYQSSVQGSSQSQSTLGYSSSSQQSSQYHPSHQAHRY

[17] = biological target: Proto-oncogene tyrosine-protein kinase receptor Ret (Homo sapiens) (UniProt P07949)
[18] = biological target: Serine/threonine-protein kinase 35 (Homo sapiens) (UniProt Q8TDR2)
[19] = biological target: Tyrosine-protein kinase Lyn (Homo sapiens) (UniProt P07948)
[20] = biological target: Angiopoietin-1 receptor (Homo sapiens) (UniProt Q02763)
Chain of Angiopoietin-1 receptor (Homo sapiens) (Q02763 whole entry): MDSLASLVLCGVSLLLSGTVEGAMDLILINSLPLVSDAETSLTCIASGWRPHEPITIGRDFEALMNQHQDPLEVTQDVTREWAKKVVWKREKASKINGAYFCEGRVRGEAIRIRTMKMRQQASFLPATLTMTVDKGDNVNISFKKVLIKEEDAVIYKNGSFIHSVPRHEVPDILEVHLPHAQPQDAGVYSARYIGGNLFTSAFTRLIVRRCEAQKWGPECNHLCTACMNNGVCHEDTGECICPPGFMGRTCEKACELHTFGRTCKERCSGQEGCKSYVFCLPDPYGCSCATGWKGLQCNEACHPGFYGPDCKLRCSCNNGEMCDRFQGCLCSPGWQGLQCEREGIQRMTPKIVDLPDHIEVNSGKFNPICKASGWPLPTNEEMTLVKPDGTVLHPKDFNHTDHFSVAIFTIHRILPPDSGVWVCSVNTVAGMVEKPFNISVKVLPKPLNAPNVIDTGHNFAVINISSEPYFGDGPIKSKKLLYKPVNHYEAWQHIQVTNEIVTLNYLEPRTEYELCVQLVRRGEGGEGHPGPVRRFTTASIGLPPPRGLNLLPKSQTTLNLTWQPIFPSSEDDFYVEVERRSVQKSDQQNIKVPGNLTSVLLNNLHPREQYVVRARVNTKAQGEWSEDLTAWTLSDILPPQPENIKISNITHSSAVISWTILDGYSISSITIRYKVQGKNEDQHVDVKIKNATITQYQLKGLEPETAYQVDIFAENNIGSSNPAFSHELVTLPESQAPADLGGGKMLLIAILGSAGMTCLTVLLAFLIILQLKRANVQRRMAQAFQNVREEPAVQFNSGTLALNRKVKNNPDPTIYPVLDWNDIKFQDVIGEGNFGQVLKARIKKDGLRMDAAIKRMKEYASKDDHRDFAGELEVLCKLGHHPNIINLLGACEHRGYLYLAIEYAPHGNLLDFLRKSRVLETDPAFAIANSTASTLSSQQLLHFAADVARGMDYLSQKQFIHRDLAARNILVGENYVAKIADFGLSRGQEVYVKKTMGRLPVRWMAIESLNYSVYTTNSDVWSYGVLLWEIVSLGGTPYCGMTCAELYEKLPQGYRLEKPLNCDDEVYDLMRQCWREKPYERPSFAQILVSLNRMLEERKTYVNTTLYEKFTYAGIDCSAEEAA

[21] = biological target: T2, Serine/threonine-protein kinase TAO3 (Homo sapiens) (UniProt Q9H2K8)
T2 sequence (whole entry): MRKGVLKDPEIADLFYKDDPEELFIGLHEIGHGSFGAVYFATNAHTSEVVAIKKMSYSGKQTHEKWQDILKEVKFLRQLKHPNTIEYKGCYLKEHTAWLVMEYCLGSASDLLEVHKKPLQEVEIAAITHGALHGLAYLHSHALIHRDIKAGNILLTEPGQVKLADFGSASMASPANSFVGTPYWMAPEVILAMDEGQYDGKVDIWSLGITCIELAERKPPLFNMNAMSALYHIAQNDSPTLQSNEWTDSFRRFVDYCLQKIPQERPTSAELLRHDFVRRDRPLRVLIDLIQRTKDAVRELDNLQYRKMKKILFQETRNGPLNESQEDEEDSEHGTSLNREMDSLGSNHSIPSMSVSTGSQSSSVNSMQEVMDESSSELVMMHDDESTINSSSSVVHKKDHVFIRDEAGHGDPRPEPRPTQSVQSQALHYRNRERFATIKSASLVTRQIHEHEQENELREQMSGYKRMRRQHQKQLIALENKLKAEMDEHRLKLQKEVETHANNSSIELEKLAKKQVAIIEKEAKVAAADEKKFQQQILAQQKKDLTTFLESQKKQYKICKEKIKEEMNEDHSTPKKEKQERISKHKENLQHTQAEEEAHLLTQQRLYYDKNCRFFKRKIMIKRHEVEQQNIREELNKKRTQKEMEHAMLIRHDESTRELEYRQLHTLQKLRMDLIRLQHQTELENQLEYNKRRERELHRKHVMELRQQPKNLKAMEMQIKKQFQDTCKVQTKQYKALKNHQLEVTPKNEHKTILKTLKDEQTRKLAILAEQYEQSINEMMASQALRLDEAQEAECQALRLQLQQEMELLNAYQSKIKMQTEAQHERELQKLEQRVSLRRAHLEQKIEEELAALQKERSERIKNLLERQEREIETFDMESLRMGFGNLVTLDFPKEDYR

[22] = test system: Phosphatidylinositol 4,5-bisphosphate 3-kinase catalytic subunit alpha isoform (Homo sapiens), P42336 [E542K]
[23] = test system: Tyrosine-protein kinase ABL1 (Homo sapiens), P00519 [Q252H]
[24] = biological target: Mitogen-activated protein kinase kinase kinase 12 (Homo sapiens) (UniProt Q12852)
Chain of Mitogen-activated protein kinase kinase kinase 12 (Homo sapiens) (Q12852 whole entry): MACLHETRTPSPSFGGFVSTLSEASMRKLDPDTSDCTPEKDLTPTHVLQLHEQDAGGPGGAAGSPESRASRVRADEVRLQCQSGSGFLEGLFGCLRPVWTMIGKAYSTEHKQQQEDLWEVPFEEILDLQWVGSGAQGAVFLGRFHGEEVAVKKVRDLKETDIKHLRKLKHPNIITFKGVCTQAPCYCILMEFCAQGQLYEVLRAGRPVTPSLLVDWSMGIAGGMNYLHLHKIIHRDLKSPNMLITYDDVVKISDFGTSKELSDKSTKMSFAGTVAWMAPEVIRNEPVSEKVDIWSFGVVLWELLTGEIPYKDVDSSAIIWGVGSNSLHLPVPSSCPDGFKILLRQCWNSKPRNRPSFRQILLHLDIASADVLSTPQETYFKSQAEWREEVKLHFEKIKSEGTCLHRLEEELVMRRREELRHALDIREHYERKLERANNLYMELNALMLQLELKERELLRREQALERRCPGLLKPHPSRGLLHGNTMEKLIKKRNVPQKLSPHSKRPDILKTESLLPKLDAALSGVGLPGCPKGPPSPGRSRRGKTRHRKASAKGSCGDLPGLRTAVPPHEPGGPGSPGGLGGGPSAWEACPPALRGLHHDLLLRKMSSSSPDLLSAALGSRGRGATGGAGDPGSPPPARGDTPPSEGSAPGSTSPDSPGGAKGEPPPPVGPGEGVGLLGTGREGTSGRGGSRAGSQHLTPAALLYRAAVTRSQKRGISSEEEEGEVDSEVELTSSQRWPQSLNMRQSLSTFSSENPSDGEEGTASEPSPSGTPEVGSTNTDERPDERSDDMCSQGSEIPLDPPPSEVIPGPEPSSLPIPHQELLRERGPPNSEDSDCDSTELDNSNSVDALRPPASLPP

[25] = biological target: Tyrosine-protein kinase SYK (Homo sapiens) (UniProt P43405)
[26] = Compound concentration 1000.0 nM
[27] = Compound concentration 100.0 nM

Work on `C[C@@H]1CN(c2cc(-c3nn(C)c4ccc(OC5(C)CC5)cc34)ncn2)C[C@H](C)O1` [MLi-2-NC] yielded a residual activity [1, 26] of 96%, a residual activity [2, 26] of 100% and a residual activity [3, 26] of 88%. For the same compound, the residual activity [4, 26] was 72%, the residual activity [5, 26] was 70% and the residual activity [6, 26] was 94%. For the same compound, the inhibition [7] was 3.31%, the residual activity [8, 26] was 98% and the residual activity [9, 26] was 100%. For the same compound, the residual activity [10, 26] was 94%, the residual activity [11, 26] was 100% and the residual activity [12, 26] was 100%. For the same compound, the residual activity [13, 26] was 93%, the residual activity [14, 26] was 100% and the residual activity [15, 26] was 82%. The residual activity [16, 26] was 92%, the residual activity [17, 26] was 96% and the residual activity [18, 26] was 100%. For the same compound, the residual activity [19, 26] was 82%, the residual activity [20, 26] was 94% and the residual activity [21, 26] was 35%. It also gave a residual activity [22, 26] of 32%, a residual activity [23, 26] of 93% and a residual activity [24, 26] of 61%. The residual activity [25, 26] was 89%.
For `C[C@@H]1CN(c2cc(-c3n[nH]c4ccc(OC5(C)CC5)cc34)ncn2)C[C@H](C)O1` [MLi-2], the residual activity [1, 27] was 87%, the residual activity [2, 27] was 100% and the residual activity [3, 27] was 89%. It also gave a residual activity [4, 27] of 59%, a residual activity [5, 27] of 71% and a residual activity [6, 27] of 100%. For the same compound, the inhibition [7] was 2.75%, the residual activity [8, 27] was 78% and the residual activity [9, 27] was 86%. It also gave a residual activity [10, 27] of 73%, a residual activity [11, 27] of 100% and a residual activity [12, 27] of 100%. The residual activity [13, 27] was 97%, the residual activity [14, 27] was 93% and the residual activity [15, 27] was 73%. The residual activity [16, 27] was 70%, the residual activity [17, 27] was 100% and the residual activity [18, 27] was 85%. It also gave a residual activity [19, 27] of 98%, a residual activity [20, 27] of 100% and a residual activity [21, 27] of 69%. It also gave a residual activity [22, 27] of 81%, a residual activity [23, 27] of 100% and a residual activity [24, 27] of 82%. The residual activity [25, 27] was 96%.
